What was measured:
[1] = target: Serine--tRNA ligase (Escherichia coli (strain K12)) (UniProt P0A8L1); experiment: (§1) Inhibition of recombinant Escherichia coli BL21(DE3) seryl-tRNA synthetase expressed in Escherichia coli Rosetta 2 (DE3) assessed as reduction in tRNA aminoacylation at 2 uM preincubated for 10 mins in presence of [14C]-isoleucin and tRNA followed by ATP addition and measured after 6 mins by scintillation counting method
Isoleucine--tRNA ligase = Isoleucine--tRNA ligase (Escherichia coli K-12, UniProt P00956); experiment: as §1, with “isoleucyl-tRNA” for “seryl-tRNA”, “aminoacylation” for “aminoacylation at 2 uM”
Sequence of Isoleucine--tRNA ligase (P00956 whole entry): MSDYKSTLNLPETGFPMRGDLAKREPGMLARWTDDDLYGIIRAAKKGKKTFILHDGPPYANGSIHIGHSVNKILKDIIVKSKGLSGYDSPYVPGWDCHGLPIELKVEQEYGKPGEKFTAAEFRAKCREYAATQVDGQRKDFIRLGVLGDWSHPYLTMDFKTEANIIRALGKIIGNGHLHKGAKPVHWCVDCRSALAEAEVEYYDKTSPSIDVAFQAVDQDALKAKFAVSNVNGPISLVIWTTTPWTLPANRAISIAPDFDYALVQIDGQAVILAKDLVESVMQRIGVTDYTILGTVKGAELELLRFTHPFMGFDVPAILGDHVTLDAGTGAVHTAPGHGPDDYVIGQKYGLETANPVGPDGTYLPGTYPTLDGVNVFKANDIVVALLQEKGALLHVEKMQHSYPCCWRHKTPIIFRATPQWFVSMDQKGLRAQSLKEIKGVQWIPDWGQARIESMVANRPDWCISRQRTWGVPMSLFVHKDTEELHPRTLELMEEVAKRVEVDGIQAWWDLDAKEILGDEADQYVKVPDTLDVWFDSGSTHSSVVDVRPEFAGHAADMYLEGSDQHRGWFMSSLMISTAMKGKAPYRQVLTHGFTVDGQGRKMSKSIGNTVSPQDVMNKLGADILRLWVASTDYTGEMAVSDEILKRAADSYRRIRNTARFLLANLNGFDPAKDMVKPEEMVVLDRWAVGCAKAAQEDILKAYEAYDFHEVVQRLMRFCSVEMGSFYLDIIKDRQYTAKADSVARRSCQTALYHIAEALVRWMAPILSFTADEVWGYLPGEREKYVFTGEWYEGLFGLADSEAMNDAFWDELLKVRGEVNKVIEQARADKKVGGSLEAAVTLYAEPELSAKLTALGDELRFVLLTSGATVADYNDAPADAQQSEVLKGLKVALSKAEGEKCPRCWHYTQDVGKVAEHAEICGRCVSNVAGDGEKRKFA

Sequence of Serine--tRNA ligase (Escherichia coli (strain K12)) (P0A8L1 whole entry, looked up): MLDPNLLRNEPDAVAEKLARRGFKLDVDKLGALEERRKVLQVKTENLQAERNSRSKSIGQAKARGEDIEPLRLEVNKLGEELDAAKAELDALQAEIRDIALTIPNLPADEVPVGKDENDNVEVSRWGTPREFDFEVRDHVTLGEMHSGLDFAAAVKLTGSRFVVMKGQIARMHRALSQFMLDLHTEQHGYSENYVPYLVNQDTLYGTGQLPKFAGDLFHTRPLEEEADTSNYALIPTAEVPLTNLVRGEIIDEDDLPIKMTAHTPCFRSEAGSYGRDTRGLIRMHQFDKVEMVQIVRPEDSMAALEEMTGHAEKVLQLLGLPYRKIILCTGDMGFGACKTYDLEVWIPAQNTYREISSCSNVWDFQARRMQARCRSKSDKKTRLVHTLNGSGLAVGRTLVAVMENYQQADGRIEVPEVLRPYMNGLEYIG

Nc1ncnc2c1ncn2[C@@H]1O[C@H](CCS(=O)(=O)NC(=O)[C@@H](N)CO)[C@@H](O)[C@H]1O
inhibition [1]: 30%

CC[C@H](C)[C@H](N)C(=O)NS(=O)(=O)CC[C@H]1O[C@@H](n2cnc3c(N)ncnc32)[C@H](O)[C@@H]1O
IC50 (Isoleucine--tRNA ligase): 6.8 nM | Ki (Isoleucine--tRNA ligase; read-out: Ki(app)): 1.2 nM

From ChEMBL document CHEMBL4393690, “Acylated sulfonamide adenosines as potent inhibitors of the adenylate-forming enzyme superfamily” (Eur J Med Chem, 2019)
